Measured values: patent US8754209B2, “Indazole derivatives or pharmaceutically acceptable salts thereof as protein kinase inhibitors for proliferative diseases treatment, and a pharmaceutical composition containing the same as an active ingredient” (Korea Institute of Science and Technology, priority 2009, dated 2014)
pIC50: −log10 of the molar value.

Key:
B-Raf-V600E = B-Raf-V600E (Homo sapiens, UniProt P15056, V600E); test: B-Raf kinase enzyme assay (MEK1/Erk2 cascade, MBP phosphorylation, 32P); type: biochemical; details: read-out: b-raf-V600Ekinase inhibitory activity (IC50)
Experimental: <1-1> Activation of MAP Kinase 2/Erk2 by B-raf
10 μl magnesium chloride/ATP solution (500 uM ATP, 75 mM magnesium chloride) was seeded in eppendorf tube. 2.5 μl B-Raf-V600E was seed (final conc. 1 ng) in eppendorf tube and treated with 1.6 μl deactivated MEK1 (final conc. 0.4 μg). The mixture was treated with 4 μl deactivated MAP kinase 2/Erk2 (final conc. 1.0 ug). And the mixture was treated with 1 μl example solution (10 mM) dissolved in dimethyl sulfoxide which was orderly diluted. Then, assay dilution buffer I (ADBI I) was added thereto (final vol. 38 μl) to make the final volume of 38 μl, and made it reacted at 30° C. for 30 min. 5 μl of resulting solution was used for the following experiment.
<1-2> Phosphorylation of Myelin basic protein (MBP)
5 μl of the above resulting solution was treated with 10 μl assay dilution buffer, and then treated with 10 μl Myelin basic protein (MBP, 2 mg/Ml). The mixture solution was treated with 10 μl of diluted (1/10) [γ^32P] ATP (100 uCi/vial) which is diluted at 30° C. for 10 min. 25 μl of the mixture solution was spotted onto a P81 paper, and the paper was washed four times with 0.75% phosphoric acid for 10 min and once with acetone for 5 min in scintillation vial. After 5 Ml of scintillation cocktail solution was added in the scintillation vial, signals were analyzed by scintillation counter.

Tie2 (h) = Tie2 (h) (Homo sapiens, UniProt Q02763); test: Kinase activity profiling service (Millipore); type: biochemical; details: read-out: Kinase inhibitory activity (IC50, uM) Tie2 (h)
Source text: (§1) Also, as mentioned above we tested kinase activities of the representative compounds of the examples using Kinase activity profiling service (Millipore UK Ltd Gemini Crescent, Dundee Technology Park, Dundee DD2 1SW, UK).

KDR (h) = KDR (h) (Homo sapiens, UniProt P35968); test: Kinase activity profiling service (Millipore); type: biochemical; details: read-out: Kinase inhibitory activity (IC50, uM) KDR (h)
Source text: as §1

c-RAF (h) = c-RAF (h) (Homo sapiens, UniProt P04049); test: Kinase activity profiling service (Millipore); type: biochemical; details: read-out: Kinase inhibitory activity (IC50, uM) c-RAF (h)
Source text: as §1

Ret (h) = Ret (h) (Homo sapiens, UniProt P07949); test: Kinase activity profiling service (Millipore); type: biochemical; details: read-out: Kinase inhibitory activity (IC50, uM) Ret (h)
Source text: as §1

SAPK2a (h) = SAPK2a (h) (Homo sapiens, UniProt Q16539); test: Kinase activity profiling service (Millipore); type: biochemical; details: read-out: Kinase inhibitory activity (IC50, uM) SAPK2a (h)
Source text: as §1

Fms (h) = Fms (h) (Homo sapiens, UniProt P07333); test: Kinase activity profiling service (Millipore); type: biochemical; details: read-out: Kinase inhibitory activity (IC50, uM) Fms (h)
Source text: as §1

A375P cells = test: Anti-proliferative activity on A375P cell line (MTT assay); type: cell-based; details: A375P human melanoma cell line
Experimental: A375P cells were purchased from American Type Culture Collection (ATCC, Rockville, Md., US) and maintained in DMEM medium (Welgene, Daegu, Korea) supplemented with 10% FBS (Welgene) and 1% penicillin/streptomycin (Welgene) in a humidified atmosphere with 5% CO2 at 37° C. The A375P cells were taken from culture substrate with 0.05% trypsin-0.02% EDTA and plated at a density of 5×10^3 cells/well in 96 well plates and then incubated at 37° C. for 24 h in a humidified atmosphere with 5% CO2 prior to treatment of various concentration (three fold serial dilution, 12 points) of test compounds. The A357P cell viability was assessed by the conventional 3-(4,5-dimethylthiazol-2-yl)-2,5-diphenyltetrazolium bromide (MTT) reduction assay. MTT assays were carried out with CellTiter 96 (Promega) according to the manufacturer's instructions.
After 1 day, 0.5 μl the representative compounds of the examples were added thereto. The representative compounds of the examples were prepared by three fold serial dilution of 10 mM stock solution in DMSO, 12 point (final conc. DMSO 0.5%). Then, 15 μl dye was added in each well. After 2 h, 100 μl stop solution was added each well. After 24 h, absorbance was measured. The absorbance at 590 nm was recorded using EnVision2103 (PerkinElmer; Boston, Mass., US). The IC50 value was calculated using GraphPad Prism 4.0 software.

c-RAF (h), sequence (P04049 whole entry): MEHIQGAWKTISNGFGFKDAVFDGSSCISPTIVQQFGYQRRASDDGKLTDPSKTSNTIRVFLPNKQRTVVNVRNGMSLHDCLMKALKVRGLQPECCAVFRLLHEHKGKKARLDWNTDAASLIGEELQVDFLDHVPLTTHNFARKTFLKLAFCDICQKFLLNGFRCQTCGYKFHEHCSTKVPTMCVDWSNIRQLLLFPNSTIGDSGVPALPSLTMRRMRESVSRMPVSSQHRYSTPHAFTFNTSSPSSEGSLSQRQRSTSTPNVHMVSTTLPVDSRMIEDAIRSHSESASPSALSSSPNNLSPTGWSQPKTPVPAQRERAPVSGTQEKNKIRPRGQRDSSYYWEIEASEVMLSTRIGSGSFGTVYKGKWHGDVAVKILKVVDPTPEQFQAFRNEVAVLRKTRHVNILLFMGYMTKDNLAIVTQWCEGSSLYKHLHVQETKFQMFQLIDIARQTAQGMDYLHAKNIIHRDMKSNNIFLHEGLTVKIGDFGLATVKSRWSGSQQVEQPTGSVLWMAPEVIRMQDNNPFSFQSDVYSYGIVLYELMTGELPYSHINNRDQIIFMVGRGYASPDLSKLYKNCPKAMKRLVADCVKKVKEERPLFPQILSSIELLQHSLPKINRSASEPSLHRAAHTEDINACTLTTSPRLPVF
SAPK2a (h), sequence (Q16539 whole entry): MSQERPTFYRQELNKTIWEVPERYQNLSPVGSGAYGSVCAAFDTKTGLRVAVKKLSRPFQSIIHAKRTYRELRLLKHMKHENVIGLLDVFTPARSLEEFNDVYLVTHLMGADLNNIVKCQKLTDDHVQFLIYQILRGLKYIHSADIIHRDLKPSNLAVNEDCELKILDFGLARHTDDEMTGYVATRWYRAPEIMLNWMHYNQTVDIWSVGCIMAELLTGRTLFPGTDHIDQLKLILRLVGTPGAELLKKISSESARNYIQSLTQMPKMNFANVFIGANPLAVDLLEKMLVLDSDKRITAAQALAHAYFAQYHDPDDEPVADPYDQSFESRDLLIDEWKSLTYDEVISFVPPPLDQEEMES
B-Raf-V600E, sequence (P15056 whole entry V600E): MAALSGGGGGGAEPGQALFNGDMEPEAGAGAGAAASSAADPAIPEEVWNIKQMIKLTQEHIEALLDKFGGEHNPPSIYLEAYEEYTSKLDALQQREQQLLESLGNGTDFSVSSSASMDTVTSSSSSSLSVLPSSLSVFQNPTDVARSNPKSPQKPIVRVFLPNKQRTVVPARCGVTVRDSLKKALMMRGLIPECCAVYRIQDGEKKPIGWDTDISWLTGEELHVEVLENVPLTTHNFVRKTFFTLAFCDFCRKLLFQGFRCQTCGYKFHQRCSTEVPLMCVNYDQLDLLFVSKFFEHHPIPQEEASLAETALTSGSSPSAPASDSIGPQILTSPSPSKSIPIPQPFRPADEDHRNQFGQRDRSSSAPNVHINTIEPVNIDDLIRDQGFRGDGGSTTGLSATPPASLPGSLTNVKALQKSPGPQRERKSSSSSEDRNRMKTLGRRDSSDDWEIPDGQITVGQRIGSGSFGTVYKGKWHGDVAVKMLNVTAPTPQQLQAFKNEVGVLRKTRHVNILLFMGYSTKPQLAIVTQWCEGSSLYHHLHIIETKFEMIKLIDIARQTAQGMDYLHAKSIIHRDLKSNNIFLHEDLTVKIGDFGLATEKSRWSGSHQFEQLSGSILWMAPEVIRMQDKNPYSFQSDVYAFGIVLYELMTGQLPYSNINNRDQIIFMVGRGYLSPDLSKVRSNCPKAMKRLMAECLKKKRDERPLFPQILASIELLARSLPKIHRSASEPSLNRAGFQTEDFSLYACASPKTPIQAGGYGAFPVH
Fms (h), sequence (P07333 20-972): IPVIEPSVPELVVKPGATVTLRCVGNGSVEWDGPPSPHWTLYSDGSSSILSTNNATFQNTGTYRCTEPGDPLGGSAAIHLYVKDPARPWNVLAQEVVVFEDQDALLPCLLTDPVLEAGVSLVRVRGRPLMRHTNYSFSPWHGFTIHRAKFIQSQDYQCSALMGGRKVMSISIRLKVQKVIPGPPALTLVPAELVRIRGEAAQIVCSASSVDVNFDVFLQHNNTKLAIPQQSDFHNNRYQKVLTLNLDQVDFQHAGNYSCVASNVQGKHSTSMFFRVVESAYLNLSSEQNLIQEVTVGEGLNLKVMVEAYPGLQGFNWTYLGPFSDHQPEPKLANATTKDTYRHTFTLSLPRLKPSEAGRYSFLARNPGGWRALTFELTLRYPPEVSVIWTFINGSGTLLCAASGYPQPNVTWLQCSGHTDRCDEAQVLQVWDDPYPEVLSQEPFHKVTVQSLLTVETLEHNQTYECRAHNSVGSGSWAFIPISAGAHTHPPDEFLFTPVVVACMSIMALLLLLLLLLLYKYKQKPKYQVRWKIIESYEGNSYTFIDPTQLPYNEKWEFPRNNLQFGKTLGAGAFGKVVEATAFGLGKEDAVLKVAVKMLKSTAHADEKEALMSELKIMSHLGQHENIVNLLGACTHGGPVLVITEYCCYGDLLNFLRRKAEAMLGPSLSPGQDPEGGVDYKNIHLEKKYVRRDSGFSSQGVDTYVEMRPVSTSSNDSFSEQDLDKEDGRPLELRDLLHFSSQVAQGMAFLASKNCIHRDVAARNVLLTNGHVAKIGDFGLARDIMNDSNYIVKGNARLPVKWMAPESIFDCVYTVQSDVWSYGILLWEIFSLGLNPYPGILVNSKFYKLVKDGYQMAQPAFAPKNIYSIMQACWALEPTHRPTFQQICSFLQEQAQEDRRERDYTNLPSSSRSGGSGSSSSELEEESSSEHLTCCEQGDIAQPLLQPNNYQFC
Tie2 (h), sequence (Q02763 23-1124): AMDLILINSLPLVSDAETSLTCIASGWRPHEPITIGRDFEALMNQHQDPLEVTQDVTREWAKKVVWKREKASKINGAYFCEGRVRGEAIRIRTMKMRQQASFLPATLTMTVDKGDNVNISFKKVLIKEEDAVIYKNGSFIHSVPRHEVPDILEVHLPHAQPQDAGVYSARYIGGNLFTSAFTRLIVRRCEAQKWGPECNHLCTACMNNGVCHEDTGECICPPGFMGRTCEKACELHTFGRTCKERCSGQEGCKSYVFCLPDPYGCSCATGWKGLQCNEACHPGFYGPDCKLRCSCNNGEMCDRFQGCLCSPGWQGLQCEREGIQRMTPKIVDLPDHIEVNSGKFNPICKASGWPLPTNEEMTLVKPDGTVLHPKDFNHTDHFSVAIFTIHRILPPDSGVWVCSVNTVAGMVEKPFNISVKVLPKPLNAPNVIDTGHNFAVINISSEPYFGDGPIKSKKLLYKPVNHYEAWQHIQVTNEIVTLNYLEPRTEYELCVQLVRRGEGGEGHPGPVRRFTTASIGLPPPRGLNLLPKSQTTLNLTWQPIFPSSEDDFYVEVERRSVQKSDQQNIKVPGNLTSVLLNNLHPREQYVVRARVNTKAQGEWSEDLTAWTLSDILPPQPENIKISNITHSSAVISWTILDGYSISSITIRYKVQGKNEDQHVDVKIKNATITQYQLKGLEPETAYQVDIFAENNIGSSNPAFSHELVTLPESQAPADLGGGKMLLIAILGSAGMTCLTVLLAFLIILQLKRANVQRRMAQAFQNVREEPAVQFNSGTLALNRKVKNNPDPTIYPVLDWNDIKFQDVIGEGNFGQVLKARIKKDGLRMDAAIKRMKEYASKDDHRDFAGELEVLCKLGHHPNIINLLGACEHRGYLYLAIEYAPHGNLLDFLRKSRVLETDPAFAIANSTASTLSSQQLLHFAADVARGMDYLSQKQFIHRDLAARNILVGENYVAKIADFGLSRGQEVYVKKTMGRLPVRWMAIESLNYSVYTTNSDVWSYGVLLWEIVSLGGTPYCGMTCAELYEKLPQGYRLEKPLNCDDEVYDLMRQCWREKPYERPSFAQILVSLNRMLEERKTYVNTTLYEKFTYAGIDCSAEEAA
Ret (h), sequence (P07949 29-1114): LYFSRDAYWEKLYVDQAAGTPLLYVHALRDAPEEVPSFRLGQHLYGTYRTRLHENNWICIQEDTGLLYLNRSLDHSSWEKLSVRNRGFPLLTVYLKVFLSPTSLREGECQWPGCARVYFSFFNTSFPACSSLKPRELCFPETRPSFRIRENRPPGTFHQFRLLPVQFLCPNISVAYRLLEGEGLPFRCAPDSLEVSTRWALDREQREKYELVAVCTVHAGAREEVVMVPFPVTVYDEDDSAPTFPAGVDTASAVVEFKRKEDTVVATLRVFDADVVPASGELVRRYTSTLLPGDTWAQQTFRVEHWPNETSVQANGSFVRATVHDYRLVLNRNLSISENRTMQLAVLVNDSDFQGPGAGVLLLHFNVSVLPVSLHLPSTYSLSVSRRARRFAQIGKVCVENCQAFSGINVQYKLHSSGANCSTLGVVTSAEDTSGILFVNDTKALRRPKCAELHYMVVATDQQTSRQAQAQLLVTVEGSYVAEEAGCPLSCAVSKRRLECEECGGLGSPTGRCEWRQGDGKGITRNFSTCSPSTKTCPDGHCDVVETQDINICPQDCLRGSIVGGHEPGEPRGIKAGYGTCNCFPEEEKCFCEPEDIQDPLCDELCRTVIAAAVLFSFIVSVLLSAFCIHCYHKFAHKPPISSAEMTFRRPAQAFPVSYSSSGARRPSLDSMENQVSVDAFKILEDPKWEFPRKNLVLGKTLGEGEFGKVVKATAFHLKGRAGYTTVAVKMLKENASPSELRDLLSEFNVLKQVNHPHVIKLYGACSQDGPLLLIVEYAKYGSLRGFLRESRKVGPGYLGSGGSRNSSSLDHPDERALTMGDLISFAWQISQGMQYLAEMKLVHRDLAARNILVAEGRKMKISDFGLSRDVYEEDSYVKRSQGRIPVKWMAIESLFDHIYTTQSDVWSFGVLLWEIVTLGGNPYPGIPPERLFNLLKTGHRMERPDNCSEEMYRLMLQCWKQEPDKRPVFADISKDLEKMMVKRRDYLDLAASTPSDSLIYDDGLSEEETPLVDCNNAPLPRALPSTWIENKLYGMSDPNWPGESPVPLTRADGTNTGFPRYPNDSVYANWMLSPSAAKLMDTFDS

Cc1ccc(NC(=O)Nc2ccc(Cl)c(C(F)(F)F)c2)cc1-c1ccc2c(C(=O)NCCN3CCOCC3)n[nH]c2c1 [Example 64, 6-(5-(3-(4-chloro-3-(trifluoromethyl)phenyl)ureido)-2-methylphenyl)-N-(2-morpholinoethyl)-1H-indazole-3-carboxamide] was tested, and the pIC50 (B-Raf-V600E) was > 5.00, the IC50 (Tie2 (h)) was 1510 µM and the IC50 (KDR (h)) was 332 µM. The IC50 (c-RAF (h)) was 137 µM, the IC50 (Ret (h)) was 603 µM and the IC50 (SAPK2a (h)) was 167 µM. The IC50 (Fms (h)) was 141 µM and the GI50 (A375P cells) was < 10 µM.
